Results taken from BindingDB's records for doi:10.1016/j.bmcl.2011.01.079 (The Scripps Research Institute, 2011).
pIC50: −log10 of the molar value.

Target: Transcription factor Jun (Homo sapiens, UniProt P05412)
Test: Inhibition of c-Jun

Sequence of Transcription factor Jun (P05412 whole entry): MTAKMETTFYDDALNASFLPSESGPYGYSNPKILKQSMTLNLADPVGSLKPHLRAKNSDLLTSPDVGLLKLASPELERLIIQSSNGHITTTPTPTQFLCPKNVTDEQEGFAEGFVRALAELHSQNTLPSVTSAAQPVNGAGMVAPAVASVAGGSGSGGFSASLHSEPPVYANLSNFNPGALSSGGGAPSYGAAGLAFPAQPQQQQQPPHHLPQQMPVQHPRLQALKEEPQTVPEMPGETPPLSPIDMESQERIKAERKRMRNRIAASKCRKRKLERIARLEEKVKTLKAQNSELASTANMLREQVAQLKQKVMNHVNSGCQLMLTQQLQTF

SMILES	pIC50
COc1ccc(-c2cccc3cnc(Nc4ccc(-n5cnc(N6CCOCC6)n5)cc4)nc23)cc1F [8-(3-fluoro-4-methoxyphenyl)-N-(4-(3-morpholino-1H-1,2,4-triazol-1-yl)phenyl)quinazolin-2-amine]	6.60
Cc1ccc(-c2cccc3cnc(NC4CCC(O)CC4)nc23)cn1 (stereo unspecified) [4-(8-(6-methylpyridin-3-yl)quinazolin-2-ylamino)cyclohexanol]	6.03
c1ccc(-c2cccc3cnc(Nc4ccc(-n5cnc(N6CCOCC6)n5)cc4)nc23)cc1 [N-(4-(3-morpholino-1H-1,2,4-triazol-1-yl)phenyl)-8-phenylquinazolin-2-amine]	5.85
COc1ccc(-c2cccc3cnc(Nc4ccc(-n5cnc(-c6ccccn6)n5)cc4)nc23)cc1F [8-(3-fluoro-4-methoxyphenyl)-N-(4-(3-(pyridin-2-yl)-1H-1,2,4-triazol-1-yl)phenyl)quinazolin-2-amine]	5.29
Cn1cc(-c2ccc3cnc(Nc4ccc(-n5cnc(N6CCOCC6)n5)cc4)nc3c2)cn1 [7-(1-methyl-1H-pyrazol-4-yl)-N-(4-(3-morpholino-1H-1,2,4-triazol-1-yl)phenyl)quinazolin-2-amine]	6.51
COc1c(-c2cnn(C)c2)ccc2cnc(Nc3ccc(-n4cnc(N5CCOCC5)n4)cc3)nc12 [8-methoxy-7-(1-methyl-1H-pyrazol-4-yl)-N-(4-(3-morpholino-1H-1,2,4-triazol-1-yl)phenyl)quinazolin-2-amine]	7.30
Cc1ccc(-c2ncn(-c3ccc(Nc4ncc5ccc(-c6cn[nH]c6)cc5n4)cc3)n2)cn1 [N-(4-(3-(6-methylpyridin-3-yl)-1H-1,2,4-triazol-1-yl)phenyl)-7-(1H-pyrazol-4-yl)quinazolin-2-amine]	7.40
Cn1cc(-c2ccc3cnc(Nc4ccc(-n5cnc(N6CCOCC6)n5)cc4)nc3c2-c2ccccc2)cn1 [7-(1-methyl-1H-pyrazol-4-yl)-N-(4-(3-morpholino-1H-1,2,4-triazol-1-yl)phenyl)-8-phenylquinazolin-2-amine]	7.40
c1cc(-n2cnc(N3CCOCC3)n2)ccc1Nc1ncc2ccc(-c3cn[nH]c3)cc2n1 [N-(4-(3-morpholino-1H-1,2,4-triazol-1-yl)phenyl)-7-(1H-pyrazol-4-yl)quinazolin-2-amine]	6.92
Cn1cc(-c2ccc3cnc(Nc4ccc(-n5cnc(N6CCOCC6)n5)cc4)nc3c2-c2cnn(C)c2)cn1 [7,8-bis(1-methyl-1H-pyrazol-4-yl)-N-(4-(3-morpholino-1H-1,2,4-triazol-1-yl)phenyl)quinazolin-2-amine]	7.40
Cn1cc(-c2ccc3cnc(Nc4ccc(-n5cnc(-c6ccccn6)n5)cc4)nc3c2)cn1 [7-(1-methyl-1H-pyrazol-4-yl)-N-(4-(3-(pyridin-2-yl)-1H-1,2,4-triazol-1-yl)phenyl)quinazolin-2-amine]	6.54
CC(C)n1cc(-c2ccc3cnc(Nc4ccc(-n5cnc(N6CCOCC6)n5)cc4)nc3c2Cl)cn1 [8-chloro-7-(1-isopropyl-1H-pyrazol-4-yl)-N-(4-(3-morpholino-1H-1,2,4-triazol-1-yl)phenyl)quinazolin-2-amine]	6.21
Cn1cc(-c2ccc3cnc(Nc4ccc(-n5cnc(N6CCOCC6)n5)cc4)nc3c2Cl)cn1 [8-chloro-7-(1-methyl-1H-pyrazol-4-yl)-N-(4-(3-morpholino-1H-1,2,4-triazol-1-yl)phenyl)quinazolin-2-amine]	7.00
Cc1ccc(-c2cccc3cnc(N[C@H]4CC[C@@H](C(=O)N5CCCC5)CC4)nc23)cn1 [((cis)-4-(8-(6-methylpyridin-3-yl)quinazolin-2-ylamino)cyclohexyl)(pyrrolidin-1-yl)methanone]	5.52
Cc1ncn(-c2ccc(Nc3ncc4cccc(-c5nccs5)c4n3)cc2)n1 [N-(4-(3-methyl-1H-1,2,4-triazol-1-yl)phenyl)-8-(thiazol-2-yl)quinazolin-2-amine]	6.70
Cc1ccc(-c2cccc3cnc(Nc4ccc5c(c4)OCO5)nc23)cn1 [N-(benzo[d][1,3]dioxol-5-yl)-8-(6-methylpyridin-3-yl)quinazolin-2-amine]	6.20
Cn1cc(-c2cccc3cnc(Nc4ccc(-n5cnc(N6CCOCC6)n5)cc4)nc23)cn1 [8-(1-methyl-1H-pyrazol-4-yl)-N-(4-(3-morpholino-1H-1,2,4-triazol-1-yl)phenyl)quinazolin-2-amine]	6.48
Cn1cc(-c2ccc3cnc(Nc4ccc(-n5cnc(N6CCOCC6)n5)cc4)nc3c2C2CC2)cn1 [8-cyclopropyl-7-(1-methyl-1H-pyrazol-4-yl)-N-(4-(3-morpholino-1H-1,2,4-triazol-1-yl)phenyl)quinazolin-2-amine]	6.89
c1cc(-c2nccs2)c2nc(Nc3ccc(-n4cnc(N5CCOCC5)n4)cc3)ncc2c1 [N-(4-(3-morpholino-1H-1,2,4-triazol-1-yl)phenyl)-8-(thiazol-2-yl)quinazolin-2-amine]	5.52
Cc1c(-c2cnn(C)c2)ccc2cnc(Nc3ccc(-n4cnc(N5CCOCC5)n4)cc3)nc12 [8-methyl-7-(1-methyl-1H-pyrazol-4-yl)-N-(4-(3-morpholino-1H-1,2,4-triazol-1-yl)phenyl)quinazolin-2-amine]	6.80
COc1ccc(-c2cccc3cnc(Nc4ccc(-n5cnc(C)n5)cc4)nc23)cc1F [8-(3-fluoro-4-methoxyphenyl)-N-(4-(3-methyl-1H-1,2,4-triazol-1-yl)phenyl)quinazolin-2-amine]	6.30
